Results taken from ChEMBL document CHEMBL1131172 (J Med Chem, 1998).
pIC50: −log10 of the molar value.

Key:
Format in all cases: functional
HCT-15 [1] = test: inhibition of the growth of colon cancer(HCT-15) cell line; conditions: Homo sapiens
SK-MEL-5 [2] = test: inhibition of the growth of melanoma cancer (SK-MEL-5) cell line; conditions: Homo sapiens
NCI-H23 [3] = test: inhibition of the growth of non-small-cell lung cancer (NCI-H23) cell line; conditions: Homo sapiens
786-0 [4] = test: Inhibition of the growth of renal cancer(786-0) cell line at 0.01 uM; conditions: Homo sapiens
MDA-N [5] = test: inhibition of the growth of breast cancer(MDA-N) cell line; conditions: Homo sapiens
SR [6] = test: Inhibition of the growth of leukemia(SR) cell line at 0.01 uM; conditions: Homo sapiens
NCI-H322M [7] = test: inhibition of the growth of non-small-cell lung cancer (NCI-H322M) cell line; conditions: Homo sapiens
NCI/ADR-RES [8] = test: Inhibition of the growth of breast cancer (MCF7/ADR-RES) cell line at 0.01 uM; conditions: Homo sapiens
MDA-MB-435 [9] = test: Inhibition of the growth of breast cancer (MDA-MB-435) cell line at 0.01 uM; conditions: Homo sapiens
[10] = target: T1, Bifunctional dihydrofolate reductase-thymidylate synthase (Toxoplasma gondii, UniProt Q07422); test: Inhibitory activity against dihydrofolate reductase(DHFR) from Toxoplasma gondii
T1 sequence (Q07422 whole entry): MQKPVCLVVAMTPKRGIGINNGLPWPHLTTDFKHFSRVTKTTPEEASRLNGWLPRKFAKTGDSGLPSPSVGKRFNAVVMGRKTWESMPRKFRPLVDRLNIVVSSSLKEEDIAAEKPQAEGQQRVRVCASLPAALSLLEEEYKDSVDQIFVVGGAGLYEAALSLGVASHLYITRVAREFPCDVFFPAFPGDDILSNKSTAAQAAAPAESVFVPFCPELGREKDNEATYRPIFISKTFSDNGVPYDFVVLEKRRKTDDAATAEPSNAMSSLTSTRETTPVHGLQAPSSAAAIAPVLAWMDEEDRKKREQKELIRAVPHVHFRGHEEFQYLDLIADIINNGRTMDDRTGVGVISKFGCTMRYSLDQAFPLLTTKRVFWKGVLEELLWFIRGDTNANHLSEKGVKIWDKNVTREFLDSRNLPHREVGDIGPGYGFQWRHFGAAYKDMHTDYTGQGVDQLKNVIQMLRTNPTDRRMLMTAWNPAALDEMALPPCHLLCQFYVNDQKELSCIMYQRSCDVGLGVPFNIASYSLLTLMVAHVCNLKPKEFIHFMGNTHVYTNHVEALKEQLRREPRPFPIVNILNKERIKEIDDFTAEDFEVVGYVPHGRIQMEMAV

HCT-116 [11] = test: inhibition of the growth of colon cancer(HCT116) cell line; conditions: Homo sapiens
SK-MEL-5 [12] = test: Inhibition of the growth of melanoma cancer (SK-MEL-5) cell line at 0.01 uM; conditions: Homo sapiens
RPMI-8226 [13] = test: inhibition of the growth of leukemia (RPMI-8226) cell line; conditions: Homo sapiens
IGROV-1 [14] = test: inhibition of the growth of ovarian cancer(IGROVI) cell line; conditions: Homo sapiens
NCI-H522 [15] = test: Inhibition of the growth of non-small-cell lung cancer (NCI-H522) cell line at 0.01 uM; conditions: Homo sapiens
SF-295 [16] = test: inhibition of the growth of CNS cancer(SF-295) cell line; conditions: Homo sapiens
OVCAR-8 [17] = test: Inhibition of the growth of ovarian cancer(OVCAR-8) cell line at 0.01 uM; conditions: Homo sapiens
A549 [18] = test: inhibition of the growth of non-small-cell lung cancer (A549/ATCC) cell line; conditions: Homo sapiens
IGROV-1 [19] = test: Inhibition of the growth of ovarian cancer(IGROVI) cell line at 0.01 uM; conditions: Homo sapiens
M14 [20] = test: inhibition of the growth of melanoma cancer (M14) cell line; conditions: Homo sapiens
786-0 [21] = test: inhibition of the growth of renal cancer(786-0) cell line; conditions: Homo sapiens
MDA-MB-435 [22] = test: Inhibition of the growth of breast cancer (MDA-MB-435) cell line; conditions: Homo sapiens
SF-539 [23] = test: inhibition of the growth of CNS cancer(SF-539) cell line; conditions: Homo sapiens
UO-31 [24] = test: inhibition of the growth of renal cancer(UO-31) cell line; conditions: Homo sapiens
UO-31 [25] = test: Inhibition of the growth of renal cancer(UO-31) cell line at 0.01 uM; conditions: Homo sapiens
Dihydrofolate reductase = target: T2, Dihydrofolate reductase (Rattus norvegicus, UniProt Q920D2); test: Inhibitory activity against dihydrofolate reductase(DHFR) from rat liver
T2 sequence (Q920D2 whole entry): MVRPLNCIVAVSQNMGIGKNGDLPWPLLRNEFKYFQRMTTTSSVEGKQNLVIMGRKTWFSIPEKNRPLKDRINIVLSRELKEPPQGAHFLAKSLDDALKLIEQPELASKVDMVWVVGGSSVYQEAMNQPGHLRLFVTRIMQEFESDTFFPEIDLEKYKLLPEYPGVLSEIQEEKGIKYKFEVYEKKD

NCI-H460 [26] = test: inhibition of the growth of non-small-cell lung cancer (NCI-H460) cell line; conditions: Homo sapiens
DU-145 [27] = test: inhibition of the growth of prostate cancer(DU-145) cell line; conditions: Homo sapiens
CAKI-1 [28] = test: Inhibition of the growth of renal cancer(CAKI-1) cell line at 0.01 uM; conditions: Homo sapiens
A549 [29] = test: Inhibition of the growth of non-small-cell lung cancer (A549/ATCC) cell line at 0.01 uM; conditions: Homo sapiens
HCT-116 [30] = test: Inhibition of the growth of colon cancer(HCT116) cell line at 0.01 uM; conditions: Homo sapiens
HCT-15 [31] = test: Inhibition of the growth of colon cancer(HCT-15) cell line at 0.01 uM; conditions: Homo sapiens
NCI/ADR-RES [32] = test: inhibition of the growth of breast cancer (MCF7/ADR-RES) cell line; conditions: Homo sapiens
NCI-H322M [33] = test: Inhibition of the growth of non-small-cell lung cancer (NCI-H322M) cell line at 0.01 uM; conditions: Homo sapiens
NCI-H522 [34] = test: inhibition of the growth of non-small-cell lung cancer (NCI-H522) cell line; conditions: Homo sapiens
KM12 = test: inhibition of the growth of colon cancer(KM-12) cell line. value in parentheses is percent inhibition at 0.01 uM; conditions: Homo sapiens
M14 [35] = test: Inhibition of the growth of melanoma cancer (M14) cell line at 0.01 uM; conditions: Homo sapiens
DU-145 [36] = test: Inhibition of the growth of prostate cancer(DU-145) cell line at 0.01 uM; conditions: Homo sapiens
CAKI-1 [37] = test: inhibition of the growth of renal cancer(CAKI-1) cell line; conditions: Homo sapiens
SF-268 [38] = test: inhibition of the growth of CNS cancer(SF-268) cell line; conditions: Homo sapiens
SF-295 [39] = test: Inhibition of the growth of CNS cancer(SF-295) cell line at 0.01 uM; conditions: Homo sapiens
SNB-19 [40] = test: inhibition of the growth of CNS cancer(SNB-19) cell line; conditions: Homo sapiens
MCF7 = test: inhibition of the growth of breast cancer (MCF-7) cell line; conditions: Homo sapiens
SNB-19 [41] = test: Inhibition of the growth of CNS cancer(SNB-19) cell line at 0.01 uM; conditions: Homo sapiens
OVCAR-8 [42] = test: inhibition of the growth of ovarian cancer(OVCAR-8) cell line; conditions: Homo sapiens
MDA-N [43] = test: Inhibition of the growth of breast cancer(MDA-N) cell line at 0.01 uM; conditions: Homo sapiens
RPMI-8226 [44] = test: Inhibition of the growth of leukemia (RPMI-8226) cell line at 0.01 uM; conditions: Homo sapiens
NCI-H23 [45] = test: Inhibition of the growth of non-small-cell lung cancer (NCI-H23) cell line at 0.01 uM; conditions: Homo sapiens
MOLT-4 = test: inhibition of the growth of leukemia (MOLT-4) cell line; conditions: Homo sapiens
NCI-H460 [46] = test: Inhibition of the growth of non-small-cell lung cancer (NCI-H460) cell line at 0.01 uM; conditions: Homo sapiens
SR [47] = test: inhibition of the growth of leukemia(SR) cell line; conditions: Homo sapiens
SF-539 [48] = test: Inhibition of the growth of CNS cancer(SF-539) cell line at 0.01 uM; conditions: Homo sapiens
SF-268 [49] = test: Inhibition of the growth of CNS cancer(SF-268) cell line at 0.01 uM; conditions: Homo sapiens

## CN(c1ccc2ccccc2c1)c1ccc2nc(N)nc(N)c2n1
HCT-15 [1]
  GI50: < 10 nM
SK-MEL-5 [2]
  GI50: < 10 nM
NCI-H23 [3]
  GI50: < 10 nM
786-0 [4]
  inhibition at 0.01 µM: 54%
MDA-N [5]
  GI50: < 10 nM
SR [6]
  inhibition at 0.01 µM: 57%
NCI-H322M [7]
  GI50: < 10 nM
NCI/ADR-RES [8]
  inhibition at 0.01 µM: 100%
MDA-MB-435 [9]
  inhibition at 0.01 µM: 66%
[10]
  pIC50: 7.84
HCT-116 [11]
  GI50: < 10 nM
SK-MEL-5 [12]
  inhibition at 0.01 µM: 77%
RPMI-8226 [13]
  GI50: < 10 nM
IGROV-1 [14]
  GI50: < 10 nM
NCI-H522 [15]
  inhibition at 0.01 µM: 60%
SF-295 [16]
  GI50: < 10 nM
OVCAR-8 [17]
  inhibition at 0.01 µM: 95%
A549 [18]
  GI50: < 10 nM
IGROV-1 [19]
  inhibition at 0.01 µM: 65%
M14 [20]
  GI50: < 10 nM
786-0 [21]
  GI50: < 10 nM
MDA-MB-435 [22]
  GI50: < 10 nM
SF-539 [23]
  GI50: < 10 nM
UO-31 [24]
  GI50: < 10 nM
UO-31 [25]
  inhibition at 0.01 µM: 54%
Dihydrofolate reductase
  pIC50: 8.00
NCI-H460 [26]
  GI50: < 10 nM
DU-145 [27]
  GI50: < 10 nM
CAKI-1 [28]
  inhibition at 0.01 µM: 74%
A549 [29]
  inhibition at 0.01 µM: 65%
HCT-116 [30]
  inhibition at 0.01 µM: 85%
HCT-15 [31]
  inhibition at 0.01 µM: 69%
NCI/ADR-RES [32]
  GI50: < 10 nM
NCI-H322M [33]
  inhibition at 0.01 µM: 56%
NCI-H522 [34]
  GI50: < 10 nM
KM12
  GI50: 10 nM
M14 [35]
  inhibition at 0.01 µM: 54%
DU-145 [36]
  inhibition at 0.01 µM: 51%
CAKI-1 [37]
  GI50: < 10 nM
SF-268 [38]
  GI50: < 10 nM
SF-295 [39]
  inhibition at 0.01 µM: 63%
SNB-19 [40]
  GI50: < 10 nM
MCF7
  GI50: 30 nM
SNB-19 [41]
  inhibition at 0.01 µM: 62%
OVCAR-8 [42]
  GI50: < 10 nM
MDA-N [43]
  inhibition at 0.01 µM: 75%
RPMI-8226 [44]
  inhibition at 0.01 µM: 66%
NCI-H23 [45]
  inhibition at 0.01 µM: 63%
MOLT-4
  GI50: 20 nM
NCI-H460 [46]
  inhibition at 0.01 µM: 79%
SR [47]
  GI50: < 10 nM
SF-539 [48]
  inhibition at 0.01 µM: 66%
SF-268 [49]
  inhibition at 0.01 µM: 52%
